Results published in US11465980B2, “6-membered aza-heterocyclic containing delta-opioid receptor modulating compounds, methods of using and making the same” (Trevena, Inc., priority 2015, dated 2022).

Key:
adult male C57 mice = experiment: Tail suspension test (TST); type: in vivo, mouse; conditions: Mus musculus; route sc, po; p < 0.05 compared to vehicle-treated mice; read-out: Active TST Dose
Protocol: The experiments were performed using adult male C57 mice (6-10 weeks of age, 20-30 g, Hilltop Lab, PA). The mice were housed in standard rodent cages with stainless steel mesh wire bar lids in groups of 4 with controlled temperature and light cycle (6:00 a.m.-6:00 p.m.). Animals were given free access to food (Harlan Teklad Global 18% protein (Madison, Wis.)) and water during a minimum 2-day habituation period to the laboratory. Animals that were used in the study were handled, housed, and sacrificed (using compressed CO2) in accord with the current NIH guidelines regarding the use and care of laboratory animals, and all applicable local, state, and federal regulations and guidelines. Animals are identified by cage number, and by markings applied to the proximal tip of the tail using a permanent marker. Group sizes (n=8, and therefore 30-50 animals per study) provide reliable estimates of treatment effects, and this species and strain of mouse has been recognized as appropriate for pharmacology studies.
To measure efficacy of the compounds the compounds were tested using a tail suspension test. The tail suspension test is a behavioral test used to evaluate the efficacy of antidepressant drugs in rodents. In the TST, mice (n=8/group) were suspended by the tail with tape approximately 30-50 cm above the lab bench. Mice are positioned such that the base of their tail is perpendicular to the lab bench. Each mouse is given 1 trial that last 6 minutes. The total duration of immobility is calculated as the percentage of time that the mouse is immobile. The duration of immobility is the main parameter measured. This is calculated from the cumulated time during which the animals is absent of initiated movements including passive swaying. When antidepressant drugs are administered, immobility is decreased by a variety of classes of antidepressant drugs. One or more of the compounds show antidepressant activity.

rat [1] = experiment: Tactile allodynia produced by nitroglycerin (migraine model, rat); type: in vivo; conditions: route sc, nitroglycerin 10 mg/kg ip, p < 0.05 vs vehicle
mouse [2] = experiment: Tactile allodynia produced by nitroglycerin (migraine model, mouse); type: in vivo; conditions: route sc, nitroglycerin 10 mg/kg ip, p < 0.05 vs vehicle, read-out: Active Migraine Doses
Protocol: Compounds were tested for efficacy in rodent models of nitroglycerine induced migraine. In this model both rats and mice can be induced to have a behavioral response consistent with the progression of a migraine attack by the intraperitoneal injection of nitroglycerin. In this test mice or rats (n=8/group) are given an intraperitoneal injection of nitroglycerin at 10 mg/kg. After 90 minutes the animals are subcutaneously dosed with test compound. A measurement of mechanical allodynia will be obtained using the up/down method with seven von Frey monofilaments. There is a specific series used for rat and mouse. Each monofilament is delivered to the hind paw for approximately 1-2 seconds. If there is a response, the next lower force will be delivered. This procedure will be performed until no response was made at the highest force or until four stimuli are administered following the initial response. The 50% paw withdrawal threshold for the hind paw will be calculated using the following formula: [Xth]log=[vFr]log+ky where [vFr] is the force of the last von Frey used, k is the average interval (in log units) between the von Frey monofilaments, and y is a value that depends upon the pattern of withdrawal responses. Testing for tactile sensitivity will be performed and a withdrawal value will be assigned as the tactile sensitivity (expressed in grams of force required to elicit a response) for the injected paw for each animal. Data is presented as the mean grams required to produce a hind paw withdrawal from the von Frey stimulus. […] Compounds found to be effective in this model of migraine at the doses indicated, although other doses may also be active. Other compounds described herein were not necessarily tested, but are expected to be able have some level of efficacy.

rat [3] = experiment: Mechanical allodynia after Freund's Complete Adjuvant, Randall-Selitto (rat); type: in vivo; conditions: route sc, p < 0.05 vs vehicle
Protocol: (§1) Animals were acclimated to the vivarium for at least 48 hr prior to behavioral testing. Inflammation was induced for both rodent species with the administration of an intraplantar (subcutaneous injection into the plantar surface of the hind paw, i.pl.) injection of 0.10 ml Freund's Complete Adjuvant (FCA).
For rat studies, the experiments were conducted 24 hours after CFA administration. Rats are tested for mechanical allodynia in a Randall-Selitto apparatus. The inflamed paw is put on a pedestal and a pointed force of increasing intensity (0 to 250 grams) is applied to the paw. When the animal struggles to withdraw from the force the test is stopped and the force to induce that struggle is recorded. Data may be presented as mean grams of force to withdrawal or a percentage of the maximum possible effect.

rat [4] = experiment: Hemilesioned rat 6-OHDA model (bar, drag, rotarod tests); type: in vivo; conditions: route sc, p < 0.05 vs vehicle
Protocol: Compounds were tested for efficacy in reversing akinesia and bradykinesia in two well accepted rodent Parkinson's disease (PD) models; the haloperidol-induced rat catalepsy and 6-OHDA rat hemiparkinson lesion models.
In the hemilesioned rat 6-OHDA model, the effect of compound on the akinetic response to lesioning of the contralateral forepaw in the bar test and stepping activity as measured by the drag test were determined. […] This assay examines efficacy for reversing PD motor symptoms (i.e. akinesia/bradykinesia and gait abilities). The behavioral readouts will include immobility time in the bar test (akinesia), number of steps in the drag test (akinesia/bradykinesia) and time spent on rod in the rotarod test (overall gait ability, gross motor behavior). Compounds were administered subcutaneously and efficacy was evaluated between 30 and 90 min post dose.

mouse [5] = experiment: Tactile allodynia produced by intraplantar Freund's Complete Adjuvant, von Frey (mouse); type: in vivo; conditions: route po, p < 0.05 vs vehicle
Protocol: as §1
For mouse studies, the experiments were conducted 48 hours after FCA administration. Tactile allodynia was measured using a series of von Frey monofilaments. These filaments are bendable, plastic and intended to poke, not penetrate, the skin. Animals were placed in a Plexiglas chamber (approximately 10 cm×20 cm×25 cm) and allowed to habituate for 5-10 minutes. The chamber was positioned on top of a mesh screen so that von Frey monofilaments can be presented to the plantar surface of the hind paw that is inflamed. The measurement of tactile sensitivity for the injected hind paw is obtained using the up/down method (LaBuda and Little, 2005, J Neurosci. Methods, 144, 175) with […]. Each trial will start with a von Frey force of 0.6 grams delivered to the hind paw for approximately 1-2 seconds. If there was no withdrawal response, the next higher force was be delivered. If there was a response, the next lower force was delivered. This procedure was performed until no response was made at the highest force (2 grams) or until four stimuli are administered following the initial response. The 50% paw withdrawal threshold for the hind paw was be calculated using the following formula: [Xth]log=[vFi]log+ky where [vFr] is the force of the last von Frey used, k is the average interval (in log units) between the von Frey monofilaments, and y is a value that depends upon the pattern of withdrawal responses (Dixon, Annual Review Pharmacol Toxicol, 1980, 20, 441).

[6] = target: T1, delta-opioid receptor (Accession NP_000902) (Homo sapiens, UniProt P41143); experiment: β-arrestin recruitment assay (DiscoveRx PathHunter); type: cell-based; conditions: HEK-293 cells
Protocol: (§2) Plasmids encoding delta-opioid receptor (Accession NP_000902), mu-opioid receptor (Accession NP_000905) and kappa-opioid receptor (Accession Assession NP_000903) were generated in the pCMV-Prolink backbone and transfected into an EA-arrestin parental human embryonic kidney (HEK-293) cell line from DiscoveRx Corporation. Clonal stable lines were subsequently selected under G418.
Cell lines were grown adherently in Minimum Essential Media (Cellgro cat #10-010-CM) containing 10% fetal bovine serum (Hyclone cat #SH30071.03), 4 mM glutamine (Cellgro cat #25-005-CI), 150 ug/ml hygromycin B (Cellgro cat #30-240-CR), 150 ug/ml G418 (Cellgro cat #30-234-CR), and 50 u/50 ug penicillin/streptomycin (Lonza cat #17-603E). Prior to the assay cells were removed from the flasks with CellStripper (Cellgro cat #25-056-CI), repeatedly pipetted to disperse cells, and spun at low speed for 5 min at room temperature. Cells were then resuspended at 250,000 cells/ml in growth media and plated at 5,000 cells/well in 384 well plates (Greiner part #784080). […]
Receptor mediated beta-arrestin recruitment was determined using the DiscoveRx β-arrestin PathHunter Detection kit (cat #93-0001). […] Following a 60 minute incubation at 37° C. the components of the DiscoveRx β-arrestin PathHunter Detection kit were added as directed and the plates were read after 1 hour on a BMG PheraStar plate reader.

[7] = target: T1, delta-opioid receptor (Accession NP_000902); experiment: cAMP assay (receptor G-protein mediated response, HTRF); type: cell-based
Protocol: as §2
Cell lines were grown adherently in Minimum Essential Media (Cellgro cat #10-010-CM) containing 10% fetal bovine serum (Hyclone cat #SH30071.03), 4 mM glutamine (Cellgro cat #25-005-CI), 150 ug/ml hygromycin B (Cellgro cat #30-240-CR), 150 ug/ml G418 (Cellgro cat #30-234-CR), and 50 u/50 ug penicillin/streptomycin (Lonza cat #17-603E). […]
Receptor G-protein mediated responses were determined by measuring changes in intracellular cAMP using CisBio HTRF cAMP HiRange kit (cat #62AM6PEJ) based on time-resolved fluorescence resonance energy transfer (TR-FRET). […] Following a 30 minute incubation at 37° C. the components of the cAMP HiRange kit were added as directed and the plates were read after 1 hour on a BMG PheraStar plate reader. Responses were measured as the ratio of fluorescence at 665 nm/620 nm per manufacturer's instructions.

T1 sequence (P41143 whole entry): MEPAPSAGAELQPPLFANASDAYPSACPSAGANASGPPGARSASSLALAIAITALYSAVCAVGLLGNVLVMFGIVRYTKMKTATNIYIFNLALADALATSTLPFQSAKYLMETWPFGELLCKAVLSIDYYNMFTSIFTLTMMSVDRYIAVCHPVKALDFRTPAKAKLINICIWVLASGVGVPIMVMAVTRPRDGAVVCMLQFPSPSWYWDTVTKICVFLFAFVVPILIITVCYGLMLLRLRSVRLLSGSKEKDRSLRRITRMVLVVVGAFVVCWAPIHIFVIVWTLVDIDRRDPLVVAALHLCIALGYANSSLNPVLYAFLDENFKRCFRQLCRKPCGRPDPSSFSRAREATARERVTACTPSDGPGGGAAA

Row | Structure (SMILES) | minimal effective dose (adult male C57 mice) | Active Migraine Doses (rat [1]) | minimal effective dose (mouse [2]) | Active CFA Dose (rat [3]) | Active Dose (hemilesioned rat 6-OHDA model) (rat [4]) | Active CFA Dose (mouse [5]) | hDOR B Span [6] | EC50 ([6]; read-out: hDOR B pEC50 (converted)) | hDOR G Span ([7]; G-protein mediated cAMP response, HEK-293 cells) | selectivity for the delta-opioid receptor ([7]; also tested at mu and kappa-opioid receptor)
1 | COc1ccc([C@@H]2CCN(CCc3ccccc3)[C@H](C)[C@H]2COc2ccc3c(c2)C(=O)NC3)cc1 [Compound B0707, (−)-6-{[(trans, trans)-4-(4-methoxyphenyl)-2-methyl-1-(2-phenylethy)piperidin-3-yl]methoxy}-2,3-dihydro-1H-isoindol-1-one] | ≤ 30 mg/kg | ≤10 mg/kg | ≤ 10 mg/kg | ≤10 mg/kg | ≤30 mg/kg | ≤30 mg/kg | – | – | – | –
2 | Fc1ccc([C@@H]2CCNC[C@H]2COc2ccc3c(c2)OCO3)cc1 [Paroxetine] | – | – | – | – | – | – | <100 | > 1 µM | <100 | non-selectivity
